Measured values reported in PubChem BioAssay (NCI).
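Grown in 96-well plates, cells were treated for 48 hours with each compound at five concentrations. Insufficient inhibition: endpoint recorded as highest concentration tested. The concentration for full growth arrest is given as TGI.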

Key:
Experiment in all cases: NCI anticancer screen, dose series, 48 h
SNB-19 CNS = test system: SNB-19 CNS
A498 renal = test system: A498 renal
UACC-257 melanoma = test system: UACC-257 melanoma
OVCAR-5 ovarian = test system: OVCAR-5 ovarian
HOP-18 NSCLC = test system: HOP-18 NSCLC
EKVX NSCLC = test system: EKVX NSCLC
SK-MEL-28 melanoma = test system: SK-MEL-28 melanoma
XF 498 CNS = test system: XF 498 CNS
RXF 393 renal = test system: RXF 393 renal
M19-MEL melanoma = test system: M19-MEL melanoma
KM12 colon = test system: KM12 colon
SR leukemia = test system: SR leukemia
M14 melanoma = test system: M14 melanoma
MOLT-4 leukemia = test system: MOLT-4 leukemia
K-562 leukemia = test system: K-562 leukemia
SF-295 CNS = test system: SF-295 CNS
RPMI-8226 leukemia = test system: RPMI-8226 leukemia
SK-OV-3 ovarian = test system: SK-OV-3 ovarian
ACHN renal = test system: ACHN renal
HT29 colon = test system: HT29 colon
SF-268 CNS = test system: SF-268 CNS
LOX IMVI melanoma = test system: LOX IMVI melanoma
SN12C renal = test system: SN12C renal
COLO 205 colon = test system: COLO 205 colon
IGROV1 ovarian = test system: IGROV1 ovarian
DMS 114 small cell lung = test system: DMS 114 small cell lung
U251 CNS = test system: U251 CNS
SK-MEL-2 melanoma = test system: SK-MEL-2 melanoma
UO-31 renal = test system: UO-31 renal
OVCAR-8 ovarian = test system: OVCAR-8 ovarian
TK-10 renal = test system: TK-10 renal
NCI-H23 lung = test system: NCI-H23 lung
SK-MEL-5 melanoma = test system: SK-MEL-5 melanoma
RXF-631 renal = test system: RXF-631 renal
NCI-H460 lung = test system: NCI-H460 lung
SF-539 CNS = test system: SF-539 CNS
786-0 renal = test system: 786-0 renal
DLD-1 colon = test system: DLD-1 colon
SW-620 colon = test system: SW-620 colon
HOP-92 NSCLC = test system: HOP-92 NSCLC
SNB-75 CNS = test system: SNB-75 CNS
HCT-15 colon = test system: HCT-15 colon
HCC-2998 colon = test system: HCC-2998 colon
UACC-62 melanoma = test system: UACC-62 melanoma
SNB-78 CNS = test system: SNB-78 CNS
LXFL 529 NSCLC = test system: LXFL 529 NSCLC
KM20L2 colon = test system: KM20L2 colon
MALME-3M melanoma = test system: MALME-3M melanoma
A549 NSCLC = test system: A549 NSCLC
NCI-H522 lung = test system: NCI-H522 lung
HL-60(TB) leukemia = test system: HL-60(TB) leukemia
CCRF-CEM leukemia = test system: CCRF-CEM leukemia
OVCAR-3 ovarian = test system: OVCAR-3 ovarian
HCT-116 colon = test system: HCT-116 colon

Which results are given for `COCOCCCCCO[Si](C)(C)C(C)(C)C`?
TGI (SNB-19 CNS): 30.6 µM; TGI (A498 renal): 77.8 µM; TGI (UACC-257 melanoma): 40.2 µM; TGI (OVCAR-5 ovarian): 44.9 µM; TGI (HOP-18 NSCLC): 65.3 µM; TGI (EKVX NSCLC): 46.8 µM; TGI (SK-MEL-28 melanoma): > 100 µM; TGI (XF 498 CNS): 31.6 µM; TGI (RXF 393 renal): 31.9 µM; TGI (M19-MEL melanoma): 70 µM; TGI (KM12 colon): 63.2 µM; TGI (SR leukemia): 49.6 µM; TGI (M14 melanoma): 48.7 µM; TGI (MOLT-4 leukemia): 36.9 µM; TGI (K-562 leukemia): 54.9 µM; TGI (SF-295 CNS): 30.1 µM; TGI (RPMI-8226 leukemia): 51.9 µM; TGI (SK-OV-3 ovarian): > 100 µM; TGI (ACHN renal): 27.7 µM; TGI (HT29 colon): 30.8 µM; TGI (SF-268 CNS): 27.9 µM; TGI (LOX IMVI melanoma): 31.2 µM; TGI (SN12C renal): 32 µM; TGI (COLO 205 colon): 38.5 µM; TGI (IGROV1 ovarian): 69.7 µM; TGI (DMS 114 small cell lung): 35.9 µM; TGI (U251 CNS): 29.4 µM; TGI (SK-MEL-2 melanoma): 31 µM; TGI (UO-31 renal): 42.8 µM; TGI (OVCAR-8 ovarian): 41.2 µM; TGI (TK-10 renal): 97.6 µM; TGI (NCI-H23 lung): 42.7 µM; TGI (SK-MEL-5 melanoma): 30.3 µM; TGI (RXF-631 renal): 52.8 µM; TGI (NCI-H460 lung): 43.4 µM; TGI (SF-539 CNS): 40.8 µM; TGI (786-0 renal): 29 µM; TGI (DLD-1 colon): > 100 µM; TGI (SW-620 colon): 33.5 µM; TGI (HOP-92 NSCLC): 36.9 µM; TGI (SNB-75 CNS): 83.8 µM; TGI (HCT-15 colon): 32.1 µM; TGI (HCC-2998 colon): 31.9 µM; TGI (UACC-62 melanoma): 64.6 µM; TGI (SNB-78 CNS): 48.3 µM; TGI (LXFL 529 NSCLC): > 100 µM; TGI (KM20L2 colon): 75.8 µM; TGI (MALME-3M melanoma): 47.9 µM; TGI (A549 NSCLC): 50 µM; TGI (NCI-H522 lung): 28.6 µM; TGI (HL-60(TB) leukemia): 30.9 µM; TGI (CCRF-CEM leukemia): 58.1 µM; TGI (OVCAR-3 ovarian): 27.6 µM; TGI (HCT-116 colon): 26.4 µM
